The text below walks through data of article PMC6368365, “Didehydro-Cortistatin A Inhibits HIV-1 by Specifically Binding to the Unstructured Basic Region of Tat” (mBio, 2019).

In one data set the test system is HIV. More on the design: method as in PMID 29045830. To be noted: dCA added to ART-suppressed mice; cited from earlier work.
The next data set concerns the target T1, Hexim-1 (Homo sapiens, UniProt O94992).
T1 construct: endogenous in cells; host or cells: HeLa-CD4-LTR-LacZ (RNA immunoprecipitation); HeLa-CD4-LTR-Luc (immunofluorescence)
Nature of the data set: Confocal immunofluorescence of Hexim-1 subcellular localization. It is filed as cell-based. As to conditions: HeLa-CD4-LTR-Luc cells. From the text:
(A) Sequence of the basic domains of HIV Tat HXB3, HIV Rev Bru and intracellular Hexim-1. […] Shown is confocal microscopy analysis of the subcellular localization of transfected FLAG-Tat or FLAG-Rev in the presence of DMSO or dCA in HeLa-CD4-LTR-Luc cells. Proteins were recognized with anti-FLAG and Alexa Fluor 568-tagged anti-IgG. Magnification 60×. Data are representative of n = 2 independent experiments. (C) Quantification of the nucleolar fluorescence of panel B using ImageJ. Data are the mean ± SEM from 3 to 4 different cells. […] HeLa-CD4-LTR-LacZ cells were infected with strain NL4-3 for 24 hours. The next day, compounds (dCA, 10 nM; KPT, 400 nM; and SCM, 10 nM) were added for 24 hours. Total, nuclear, and cytoplasmic mRNAs were extracted, and viral messages were determined by qRT-PCR. GAPDH was used for normalization. Data are the mean ± SD from n = 5 independent experiments. […] (G) Quantification of nuclear fluorescence of panel F using ImageJ. […] Statistical significance was determined using one-way ANOVA with post hoc Tukey’s test. ns, not significant; ***, P < 0.0001; **, P < 0.001.
Hexim-1 directly binds to cyclin T1 and is responsible for the inactivation of the kinase activity of P-TEFb ([35], [36]). […] Intracellular Hexim-1 was immunoprecipitated, and 7SK snRNP bound to Hexim-1 was extracted, reverse transcribed, and quantified by qRT-PCR as previously described ([42]) (Fig. 3E). […]

Details of data set [1]: method as in PMID 22817991, PMID 29045830, PMID 25613133. As to conditions: mice; cited from earlier work.
Data set [2] has as its system export function of HIV Rev. Nature of the data set: Viral mRNA export in NL4-3-infected CEM-SS cells (qRT-PCR). It is filed as cell-based, HIV-1. As to conditions: dCA 30 nM, 24 hours. From the text:
If dCA were to bind the basic domain of Tat in its disordered form, then one would predict it might also bind to other basic peptide sequences and block their functions. The two well-known proteins that share a similar basic domain with Tat are HIV-1 Rev protein and the cellular protein Hexim-1 (Fig. 3A). As such, we investigated whether dCA could inhibit these similar basic domain functions. The basic domain of Rev is responsible for its nuclear localization ([31]); therefore, we assessed whether dCA could impact the subcellular localization of Rev (Fig. 3B) as previously shown for Tat ([10]). We transfected HeLa-CD4-LTR-Luc cells with a plasmid expressing FLAG-tagged Rev and assessed Rev localization in the presence of 100 nM dCA. […] Twenty-four hours later, cells were collected, and total, nuclear, and cytoplasmic mRNAs were extracted, reverse transcribed, and quantified by quantitative real-time PCR (qRT-PCR).
Cells were infected with the NL4-3 strain for 24 hours. […] Total, nuclear, and cytoplasmic mRNAs were extracted, and viral messages were measured by qRT-PCR. […] Statistical significance was determined using one-way ANOVA with post hoc Tukey’s test, comparing the DMSO condition to the other conditions. ***, P < 0.0001; **, P < 0.001; *, P < 0.01. […] Seventy hours later, viability was measured. […]
For orientation: Quantitative PCR measures a nucleic acid by following its amplification.

Each structure is given as a SMILES string.

T1 sequence (O94992 whole entry): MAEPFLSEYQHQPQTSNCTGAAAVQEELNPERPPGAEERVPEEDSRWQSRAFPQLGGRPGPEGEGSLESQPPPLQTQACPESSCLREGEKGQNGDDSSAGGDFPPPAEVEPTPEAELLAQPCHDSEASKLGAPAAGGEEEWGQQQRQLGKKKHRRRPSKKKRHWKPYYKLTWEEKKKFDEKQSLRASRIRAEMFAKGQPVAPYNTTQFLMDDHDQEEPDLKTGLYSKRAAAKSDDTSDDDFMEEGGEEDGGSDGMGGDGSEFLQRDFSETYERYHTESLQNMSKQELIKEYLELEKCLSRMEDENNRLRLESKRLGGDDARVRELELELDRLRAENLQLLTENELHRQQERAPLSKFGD

Consider `CN(C)C1CC23CCC4(O2)C(=CCC2(C)C(c5ccc6ccncc6c5)=CCC24)C=C3C(O)C1O` (stereo not shown) [dCA, didehydro-cortistatin A], for which the in vivo efficacy entry in the data set on HIV was “systemically reduced viral mRNA in tissues and significantly delayed and reduced viral rebound levels upon treatment interruption”. Also, the Hexim-1 nuclear localization entry at Hexim-1 is “did not have any effect”. In addition, the bioavailability result in data set [1] was “good bioavailability in mice”. Also, the “export function of HIV Rev in CEM-SS cells” value in data set [2] is “does not perturb the export function of HIV Rev in CEM-SS cells”.
